Values of other authors, collected in patent US9394312B1, “Ibrutinib prodrugs, pharmaceutical compositions thereof, and methods of use” (priority 2015, dated 2016).

Conditions: humans, combined with a meal versus fasted

## C=CC(=O)N1CCC[C@@H](n2nc(-c3ccc(Oc4ccccc4)cc3)c3c(N)ncnc32)C1 [ibrutinib]
  change of absolute bioavailability when combined with a meal: doubled
